Earlier results, collected in paper PMC5763161 (Molecular Therapy, 2017).

Tested on: dystrophin exon skipping
Conditions: mdx mice

ASSLNIA
delivery or exon-skipping levels when conjugated to a PMO: unable to increase
